Experimental findings from patent US5629007A, “Method of preventing prostatic cancer development” (priority 1995, dated 1997) are described below.

The target of this test is T1, Human Type I Steroid 5α-Reductase (Homo sapiens, UniProt P18405).
T1 construct: Scalp punch biopsies from graft recipient sites were obtained; from tissue; host or cells: human scalp punch biopsies (hair transplant graft recipient sites), homogenate, resuspended 100,000×g pellet
T1 sequence (P18405 1-259): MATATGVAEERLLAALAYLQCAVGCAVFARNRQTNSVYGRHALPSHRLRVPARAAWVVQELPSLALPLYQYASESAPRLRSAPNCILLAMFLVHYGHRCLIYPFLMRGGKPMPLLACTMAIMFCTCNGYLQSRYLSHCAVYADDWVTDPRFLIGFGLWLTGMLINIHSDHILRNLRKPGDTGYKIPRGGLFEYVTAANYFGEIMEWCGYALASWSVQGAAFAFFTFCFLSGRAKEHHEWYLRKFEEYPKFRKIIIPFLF
Put plainly: Human 5α-Reductase Homogenate Assay (Type I, human scalp): conversion of [3H]-testosterone to 5α-reduced metabolites. In kind it is biochemical. Particulars: 0.3 μM test compound, compared to control reaction mixtures; 50 nM [3H]-testosterone, pH 7.5, 25°, 180 min. The source says:
Methodology of Human Type I Steroid 5α-Reductase Assays
Approximately 60-75 punches from one surgical procedure were used to generate an enzyme preparation. The subcutaneous tissue was cut away and discarded. The skin was frozen with liquid nitrogen and pulverized to powder. […] The homogenization procedure consisted of four 15 second pulses. Connective tissue was cleared from the probe with forceps between pulses. […] The pellet was resuspended by homogenization with a Dounce homogenizer using the same buffer solution. An aliquot was taken for protein determination by the Lowry method, Lowry, et al., Protein Measurement with the Folin Phenol Reagent, J. Biol. Chem., 193, 265-75 (1951). Aliquots of the enzyme preparation were stored at -80° until use.
The reaction was initiated by the addition of 0.5 mg of Type I 5α-reductase. The reaction mixture was incubated at 25° for 180 min, and terminated by the addition of 1 mL ice-cold stopping solution. […] The samples were prepared for high performance liquid chromatography by solid phase extraction. […] The reaction mixtures were then applied to the columns. The columns were subsequently washed with 5 mL of acetone:water (1:4), followed by 0.3 mL of methanol. The samples were then eluted with 3 mL of methanol and collected in 20 mL scintillation vials. […] The column temperature was maintained at 35° and the flow rate was 1.5 mL/min.
With `CN1C(=O)CC[C@]2(C)c3ccc(Sc4nc5c(ccc6ccccc65)s4)cc3CC[C@@H]12` [Example 163, (+)-(4aR)-(10bR)-4-methyl-8-(2-naphtho<1,2-d>-thiazolylthio)-10b-methyl-1,2,3,4,4a,5,6,10b-octahydrobenzo[f]-quinolin-3-one], the “percent inhibition of Type I 5AR” value is recorded as 80%. Consider `C[C@]12CCC(=O)N[C@@H]1CCc1cc(-c3cnc4ccccc4c3)ccc12` [Example 196, (+)-(4aR)-(10bR)-8-(3-quinolinyl)-10b-methyl-1,2,3,4,4a,5,6,10b-octahydrobenzo[f]quinolin-3-one], for which the “percent inhibition of Type I 5AR” value worked out at 11%. With `CN1C(=O)CC[C@]2(C)c3ccc(-c4ccc(-c5ccc(NC(=O)C(C)(C)C)s5)cc4)cc3CC[C@@H]12` [Example 222, (+)-(4aR)-(10bR)-4-methyl-8-(4-[(2-t-butylcarbonylamino]-5-thienyl]phenyl)-10b-methyl-1,2,3,4,4a,5,6,10b-octahydrobenzo[f]quinolin-3-one], the “percent inhibition of Type I 5AR” value is 86%. Regarding `CN1C(=O)CC[C@]2(C)c3ccc(C=Cc4ccccc4)cc3CC[C@@H]12` [Example 285, (4aR)-(10bR)-4,10b-dimethyl-8-(2-phenylethenyl)-1,2,3,4,4a,5,6,10b-octahydrobenzo[f]quinolin-3-one], the “percent inhibition of Type I 5AR” value is recorded as 93%. As to “(+)-(4aR)-(10bR)-4-methyl-8-benzyloxycarbonyl-10b-methyl-1,2,3,4,4a,5,6,10b-octahydrobenzo[f]quinolin-3-one [Example 144]”, the “percent inhibition of Type I 5AR” value is reported as 90%.
